This passage reports MIC results from ChEMBL document CHEMBL1159272, “Antimicrobial metabolites from a bacterial symbiont” (1995).

Values after ≈ are worked out from the molar mass of the structure shown.

Common to all, as to type: functional
The subject of one assay is Phytophthora infestans. Briefly: Antifungal activity against Phytophthora infestans after 96 hrs by serial dilution method.
The next assay has as its system Aspergillus flavus. Briefly: Antifungal activity against Aspergillus flavus ATCC 24133 after 24 hrs by serial dilution method. To be noted: ATCC 24133, 24 h.
A further assay concerns Botrytis cinerea. The experiment in a line: Antifungal activity against Botrytis cinerea after 48 hrs by serial dilution method.
For a further assay, the system named is Aspergillus fumigatus. Briefly: Antifungal activity against Aspergillus fumigatus ATCC 13073 after 24 hrs by serial dilution method. The note with it: ATCC 13073, 24 h.
Another assay concerns Globisporangium ultimum. The experiment in a line: Antifungal activity against Pythium ultimum after 24 hrs by serial dilution method.
The subject of another assay is Cryptococcus neoformans. Briefly: Antifungal activity against Cryptococcus neoformans ATCC 14117 after 24 hrs by serial dilution method. To be noted: ATCC 14117, 24 h.
In another assay the test system is Candida tropicalis. The experiment in a line: Antifungal activity against Candida tropicalis CBS94 after 24 hrs by serial dilution method.

As a reminder, the MIC is the smallest concentration in the dilution series that meets the test's criterion for growth inhibition. `CCC(C)C(=O)C(O)Cc1c[nH]c2ccccc12` (stereo unspecified): the MIC is 100 µg/mL (≈ 408 µM) with Phytophthora infestans; greater than 100 µg/mL against Aspergillus flavus; 12 µg/mL (≈ 48.9 µM) against Botrytis cinerea; greater than 100 µg/mL against Aspergillus fumigatus; greater than 100 µg/mL in the assay on Globisporangium ultimum; greater than 100 µg/mL against Cryptococcus neoformans. This compound returned an MIC against Candida tropicalis greater than 100 µg/mL.
As to `CCC(C)C(=O)C(Cc1c[nH]c2ccccc12)OC(C)=O` (stereo unspecified), the MIC against Phytophthora infestans is 100 µg/mL (≈ 348 µM); against Aspergillus flavus, greater than 100 µg/mL; with Botrytis cinerea it was greater than 100 µg/mL; with Aspergillus fumigatus, greater than 100 µg/mL; with Globisporangium ultimum it was greater than 100 µg/mL; in the assay on Cryptococcus neoformans, 50 µg/mL (≈ 174 µM). The same compound registered an MIC in the assay on Candida tropicalis greater than 100 µg/mL.
In the case of `CC(=O)OC(Cc1c[nH]c2ccccc12)C(=O)C(C)C` (stereo unspecified), the MIC against Aspergillus flavus is greater than 100 µg/mL; in the assay with Botrytis cinerea, greater than 100 µg/mL; against Aspergillus fumigatus it was greater than 100 µg/mL; against Cryptococcus neoformans it was 25 µg/mL (≈ 91.5 µM); with Candida tropicalis it was greater than 100 µg/mL.
In the case of `CC(C)C(=O)C(O)Cc1c[nH]c2ccccc12` (stereo unspecified), the MIC with Phytophthora infestans was 50 µg/mL (≈ 216 µM); against Aspergillus flavus it was greater than 100 µg/mL; with Botrytis cinerea it was 12 µg/mL (≈ 51.9 µM); in the assay with Aspergillus fumigatus it was greater than 100 µg/mL; against Globisporangium ultimum, greater than 100 µg/mL; with Cryptococcus neoformans, greater than 100 µg/mL. In addition, in the assay with Candida tropicalis, the MIC is greater than 100 µg/mL.
